Values after ≈ are worked out from the molar mass of the structure shown.
What was measured:
[1] = system: E. coli; test: MIC by broth microdilution (CLSI), E. coli; type: cell-based; conditions: Escherichia coli, broth microdilution, cation adjusted Mueller-Hinton Broth, 35° C., 18-24 h; read-out: E. coli MIC
Protocol: (§1) Minimal inhibitory concentrations (MIC) were determined by the broth microdilution method in accordance with the Clinical and Laboratory Standards Institute (CLSI) guidelines. In brief, organism suspensions were adjusted to a 0.5 McFarland standard to yield a final inoculum between 3×10^5 and 7×10^5 colony-forming units (CFU)/mL. Drug dilutions and inocula were made in sterile, cation adjusted Mueller-Hinton Broth (Beckton Dickinson). An inoculum volume of 100 μL was added to wells containing 100 μL of broth with 2-fold serial dilutions of drug. All inoculated microdilution trays were incubated in ambient air at 35° C. for 18-24 h. Following incubation, the lowest concentration of the drug that prevented visible growth (OD600 nm<0.05) was recorded as the MIC. Performance of the assay was monitored by the use of laboratory quality-control strains and levofloxacin, a compound with a defined MIC spectrum, in accordance with CLSI guidelines.

[2] = system: K. pneumoniae; test: MIC by broth microdilution (CLSI), K. pneumoniae; type: cell-based; conditions: Klebsiella pneumoniae, broth microdilution, cation adjusted Mueller-Hinton Broth, 35° C., 18-24 h; read-out: K. pneumoniae MIC
Protocol: as §1

SMILES | MIC [1] [µg/mL] | MIC [2] [µg/mL]
COC(=O)NCC(Cc1ccc(C#Cc2ccc(CN3CCOCC3)cc2)cn1)c1nc[nH]c(=O)c1O (stereo not drawn) [Compound 29, methyl (2-(5-hydroxy-6-oxo-1,6-dihydropyrimidin-4-yl)-3-(5-((4-(morpholinomethyl)phenyl)ethynyl)pyridin-2-yl)propyl)carbamate] | > 32 | > 32
CNC(=O)C(Cc1ccc(C#Cc2ccc(CN3CCOCC3)cc2)cc1)c1nccc(O)c1O (stereo not drawn) [Compound 12, 2-(3,4-dihydroxypyridin-2-yl)-N-methyl-3-(4-((4-(morpholinomethyl)phenyl)ethynyl)phenyl)propanamide] | 8 to 32 (≈ 17 to 67.9 µM) | 
N#Cc1ccc(-c2ccc(CC(C(=O)NCC(F)F)c3nc[nH]c(=O)c3O)cc2)cc1 (stereo not drawn) [Compound 39, 3-(4′-cyano-[1,1′-biphenyl]-4-yl)-N-(2,2-difluoroethyl)-2-(5-hydroxy-6-oxo-1,6-dihydropyrimidin-4-yl)propanamide] | > 32 | > 32
C=CCNCC(Cc1ccc(C#CC#Cc2cnn(C)c2)cc1)c1nc[nH]c(=O)c1O (stereo not drawn) [Compound 62, 6-(1-(allylamino)-3-(4-((1-methyl-1H-pyrazol-4-yl)buta-1,3-diyn-1-yl)phenyl)propan-2-yl)-5-hydroxypyrimidin-4(3H)-one] | 1 to 8 (≈ 2.42 to 19.3 µM) | 8 to 32 (≈ 19.3 to 77.4 µM)
C=CCC(Nc1ccc(C#Cc2ccc(CN3CCOCC3)cc2)cc1)c1occc(=O)c1O (stereo not drawn) [Compound 126, 3-hydroxy-2-(1-((4-((4-(morpholinomethyl)phenyl)ethynyl)phenyl)amino)but-3-en-1-yl)-4H-pyran-4-one] | > 32 | 
Cc1ncc(C#Cc2ccc(CC(C(=O)NCC(F)F)c3nc[nH]c(=O)c3O)cc2)cn1 (stereo not drawn) [Compound 25, N-(2,2-difluoroethyl)-2-(5-hydroxy-6-oxo-1,6-dihydropyrimidin-4-yl)-3-(4-((2-methylpyrimidin-5-yl)ethynyl)phenyl)propanamide] | > 32 | > 32
NC(=O)C(Cc1ccc(C#Cc2ccc(CN3CCOCC3)cc2)cc1)n1cncc(O)c1=O (stereo not drawn) [Compound 5, 2-(5-hydroxy-6-oxopyrimidin-1(6H)-yl)-3-(4-((4-(morpholinomethyl)phenyl)ethynyl)phenyl)propanamide] | > 32 | 
CS(=O)(=O)C(Cc1ccc(C#Cc2ccc(CN3CCOCC3)cc2)cc1)c1occc(=O)c1O (stereo not drawn) [Compound 120, 3-hydroxy-2-(l1-(methylsulfonyl)-2-(4-((4-(morpholinomethyl)phenyl)ethynyl)phenyl)ethyl)-4H-pyran-4-one] | > 32 | 
CC(C)C#CC#Cc1ccc(CC(C(=O)NCC(F)F)c2nc[nH]c(=O)c2O)cc1F (stereo not drawn) [Compound 63, N-(2,2-difluoroethyl)-3-(3-fluoro-4-(5-methylhexa-1,3-diyn-1-yl)phenyl)-2-(5-hydroxy-6-oxo-1,6-dihydropyrimidin-4-yl)propanamide] | 1 to 8 (≈ 2.32 to 18.5 µM) | 8 to 32 (≈ 18.5 to 74.2 µM)
O=c1[nH]cnc(CNc2ccc(C#Cc3ccc(CN4CCOCC4)cc3)cc2)c1O [Compound 108, 5-hydroxy-6-(((4-((4-(morpholinomethyl)phenyl)ethynyl)phenyl)amino)methyl) pyrimidin-4(3H)-one] | 1 to 8 (≈ 2.4 to 19.2 µM) | > 32
O=c1[nH]cnc(CCc2ccc(C#Cc3ncccn3)cc2)c1O [Compound 14, 5-hydroxy-6-(4-(pyrimidin-2-ylethynyl)phenethyl) pyrimidin-4(3H)-one] | 8 to 32 (≈ 25.1 to 101 µM) | > 32
O=c1[nH]cnc(C2CC2c2ccc(C#Cc3ccc(CN[C@@H]4CCNC4)cc3)cc2)c1O (stereo partly drawn) [Compound 103, 5-hydroxy-6-(2-(4-((4-((((R)-pyrrolidin-3-yl)amino)methyl)phenyl)ethynyl)phenyl)cyclopropyl) pyrimidin-4(3H)-one] | 1 to 8 (≈ 2.34 to 18.8 µM) | > 32
O=C(Cc1nc[nH]c(=O)c1O)N1CCC(C#Cc2ccc(CN3CCOCC3)cc2)CC1 [Compound 77, 5-hydroxy-6-(2-(4-((4-(morpholinomethyl)phenyl)ethynyl)piperidin-1-yl)-2-oxoethyl)pyrimidin-4(3H)-one] | 8 to 32 (≈ 18.3 to 73.3 µM) | > 32
O=c1[nH]cnc(CCc2ccc(C#Cc3ccncc3)cc2)c1O [Compound 18, 5-hydroxy-6-(4-(pyridin-4-ylethynyl)phenethyl) pyrimidin-4(3H)-one] | < 1 | > 32
O=C(Nc1ccc(C#CC#Cc2ccccc2)cc1)c1occc(=O)c1O [Compound 130, 3-hydroxy-4-oxo-N-(4-(phenylbuta-1,3-diyn-1-yl)phenyl)-4H-pyran-2-carboxamide] | > 32 | 
O=C(O)c1ccc(C#Cc2ccc(NCc3occc(=O)c3O)cc2)cc1 [Compound 123, 4-((4-(((3-hydroxy-4-oxo-4H-pyran-2-yl)methyl)amino)phenyl)ethynyl)benzoic acid] | > 32 | 

SMILES | MIC [1] [µg/mL] | MIC [2] [µg/mL]
O=c1[nH]cnc(CN(CCO)c2ccc(C#Cc3ccc(CN4CCOCC4)cc3)cc2)c1O [Compound 127, 5-hydroxy-6-(((2-hydroxyethyl)(4-((4-(morpholinomethyl)phenyl)ethynyl)phenyl)amino)methyl) pyrimidin-4(3H)-one] | > 32 | 
CC(=O)NCC(Cc1ccc(C#Cc2ccc(CN3CCOCC3)cc2)cc1)c1cc[nH]c(=O)c1O (stereo not drawn) [Compound 1, N-(2-(3-hydroxy-2-oxo-1,2-dihydropyridin-4-yl)-3-(4-((4-(morpholinomethyl)phenyl)ethynyl)phenyl)propyl) acetamide] | > 32 | 
O=c1[nH]cnc(Cn2ccc(C#Cc3ccc(CN4CCOCC4)cc3)cc2=O)c1O [Compound 44, 5-hydroxy-6-((4-((4-(morpholinomethyl)phenyl)ethynyl)-2-oxopyridin-1(2H)-yl)methyl)pyrimidin-4(3H)-one] | 8 to 32 (≈ 19.1 to 76.5 µM) | 
CNC(=O)C(Cc1ccc(C#Cc2ccc(CN3CCOCC3)cc2)cc1)n1cncc(O)c1=O (stereo not drawn) [Compound 4, 2-(5-hydroxy-6-oxopyrimidin-1(6H)-yl)-N-methyl-3-(4-((4-(morpholinomethyl)phenyl)ethynyl)phenyl)propanamide] | > 32 | 
CS(=O)(=O)NCC(Cc1ccc(C#Cc2ccc(CN3CCOCC3)cc2)cc1)n1cncc(O)c1=O (stereo not drawn) [Compound 7, N-(2-(5-hydroxy-6-oxopyrimidin-1(6H)-yl)-3-(4-((4-(morpholinomethyl)phenyl)ethynyl)phenyl)propyl) methanesulfonamide] | > 32 | 
NC(=O)C(Cc1ccc(C#Cc2ccc(CN3CCOCC3)cc2)cc1)n1cccc(O)c1=O (stereo not drawn) [Compound 6, 2-(3-hydroxy-2-oxopyridin-1(2H)-yl)-3-(4-((4-(morpholinomethyl)phenyl)ethynyl)phenyl)propanamide] | > 32 | 
O=c1[nH]cnc(CCc2ncc(C#Cc3ccc(CN4CCOCC4)cc3)cn2)c1O [Compound 21, 5-hydroxy-6-(2-(5-((4-(morpholinomethyl)phenyl)ethynyl)pyrimidin-2-yl)ethyl)pyrimidin-4(3H)-one] | 1 to 8 (≈ 2.4 to 19.2 µM) | 
CC(=O)NCC(Cc1ccc(C#Cc2ccc(CN3CCOCC3)cc2)cc1)n1cncc(O)c1=O (stereo not drawn) [Compound 3, N-(2-(5-hydroxy-6-oxopyrimidin-1(6H)-yl)-3-(4-((4-(morpholinomethyl)phenyl)ethynyl)phenyl)propyl) acetamide] | > 32 | 
O=c1[nH]cnc(C(Cc2ccc(C#Cc3ccc(CN4CCOCC4)cc3)cc2)Cn2cnnn2)c1O (stereo not drawn) [Compound 119, 5-hydroxy-6-(1-(4-((4-(morpholinomethyl)phenyl)ethynyl)phenyl)-3-(1H-tetrazol-1-yl)propan-2-yl)pyrimidin-4(3H)-one] | > 32 | 
N#CC(Cc1ccc(C#Cc2ccc(CN3CCOCC3)cc2)cc1)c1cc[nH]c(=O)c1O (stereo not drawn) [Compound 121, 2-(3-hydroxy-2-oxo-1,2-dihydropyridin-4-yl)-3-(4-((4-(morpholinomethyl)phenyl)ethynyl)phenyl)propanenitrile] | > 32 | 
O=c1[nH]cnc(CS(=O)(=O)c2ccc(C#Cc3ccc(CN4CCOCC4)cc3)cc2)c1O [Compound 118, 5-hydroxy-6-(((4-((4-(morpholinomethyl)phenyl)ethynyl)phenyl)sulfonyl)methyl) pyrimidin-4(3H)-one] | 8 to 32 (≈ 17.2 to 68.7 µM) | 
O=c1[nH]cnc(CNc2ccc(C#Cc3ccc(-c4nnn[nH]4)cc3)cc2)c1O [Compound 129, 6-(((4-((4-(1H-tetrazol-5-yl)phenyl)ethynyl)phenyl)amino)methyl)-5-hydroxypyrimidin-4(3H)-one] | > 32 | 
O=C1N(Cc2nc[nH]c(=O)c2O)Cc2cc(C#Cc3ccc(CN4CCOCC4)cc3)cn21 [Compound 81, 2-((5-hydroxy-6-oxo-1,6-dihydropyrimidin-4-yl)methyl)-6-((4-(morpholinomethyl)phenyl)ethynyl)-1,2-dihydro-3H-pyrrolo[1,2-c]imidazol-3-one] | 8 to 32 (≈ 18 to 71.8 µM) | 
O=c1[nH]cnc(CNc2ccc(C#Cc3ccc(-c4ncco4)cc3)cc2)c1O [Compound 128, 5-hydroxy-6-(((4-((4-(oxazol-2-yl)phenyl)ethynyl)phenyl)amino)methyl)pyrimidin-4(3H)-one] | > 32 | 
Cn1ccc(=O)c(O)c1CNc1ccc(C#Cc2ccc(CN3CCOCC3)cc2)cc1 [Compound 2, 3-hydroxy-1-methyl-2-(((4-((4-(morpholinomethyl)phenyl)ethynyl)phenyl)amino)methyl) pyridin-4(1H)-one] | 8 to 32 (≈ 18.6 to 74.5 µM) | 
O=c1ccoc(CS(=O)(=O)c2ccc(C#Cc3ccc(CN4CCOCC4)cc3)cc2)c1O [Compound 124, 3-hydroxy-2-(((4-((4-(morpholinomethyl)phenyl)ethynyl)phenyl)sulfonyl)methyl)-4H-pyran-4-one] | > 32 | 

— patent US20220081421A1, “ANTIBACTERIAL COMPOUNDS” (Forge Therapeutics, Inc., priority 2018, published 2022)
